Experimental data taken from article PMC6429183, “Identification of Compounds That Inhibit Estrogen-Related Receptor Alpha Signaling Using High-Throughput Screening Assays” (Molecules, 2019).
Like-named read-outs stand apart in the source and are kept apart here.

Assays:
IDH3α = assay: qRT-PCR mRNA expression of ERR downstream gene IDH3α; format: cell-based; settings: ERR reporter cells, vs GAPDH, DMSO = 0%
Method: (§1) Total RNA was isolated from treated ERR reporter cells using an RNeasy Mini Kit (Qiagen, Germantown, MD, USA), homogenized using a QIAshredder (Qiagen), and reverse transcribed with a High-Capacity RNA-to-cDNA™ Kit (ThermoFisher Scientific, Inc.) following the manufacturers’ instructions. Expression of ERRα, COX8α, IDH3α, PPARα, COX4I1, and cytochrome c genes was normalized against GAPDH. All primers were purchased from ThermoFisher Scientific, Inc. Real-time PCR assays were performed in 384-well plates on a QuantStudio 5 (Applied Biosystems, Foster City, CA, USA) with TaqMan™ Gene Expression Master Mix (ThermoFisher Scientific, Inc.). Induction values were calculated using the equation: Fold = 2^ΔΔCt, where ΔCt represents the differences in cycle threshold numbers between each of the target genes and GAPDH, and ΔΔCt represents the relative change in these differences between control and treatment groups. Experimental data are presented as a mean of triplicate determinations ± SD. Statistical comparisons were made by t-test, while the statistical significance was set at p values of <0.05 (light blue), <0.01 (medium blue), and <0.001 (dark blue).

[1] = biological target: T1, ERRα with PGC-1α (PGC/ERR pathway) (Homo sapiens, UniProt P11474); assay: PGC/ERR reporter (luciferase) qHTS assay, PGC/ERR-HEK293; settings: for EC50: mean ± SD, triplicate; for activity in the ERR/PGC assay: in words
T1 sequence (P11474 1-423): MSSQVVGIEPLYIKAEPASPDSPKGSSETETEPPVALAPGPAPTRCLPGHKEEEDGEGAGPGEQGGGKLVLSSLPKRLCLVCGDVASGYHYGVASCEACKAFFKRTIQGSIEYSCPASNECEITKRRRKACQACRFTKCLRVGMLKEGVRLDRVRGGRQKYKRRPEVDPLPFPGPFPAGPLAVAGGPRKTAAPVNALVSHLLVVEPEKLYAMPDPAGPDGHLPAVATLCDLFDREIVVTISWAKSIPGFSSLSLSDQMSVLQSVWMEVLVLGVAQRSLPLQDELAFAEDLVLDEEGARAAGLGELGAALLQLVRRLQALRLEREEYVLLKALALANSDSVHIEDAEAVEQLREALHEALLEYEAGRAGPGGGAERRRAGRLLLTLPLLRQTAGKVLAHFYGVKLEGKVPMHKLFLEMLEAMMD
Method: (§3) The ERR reporter HEK293 cells were cultured in high glucose DMEM medium (ThermoFisher Scientific, Inc., Waltham, MA, USA) supplemented with 10% fetal bovine serum (FBS; ThermoFisher Scientific, Inc.), 4 mM of L-glutamine (ThermoFisher Scientific, Inc.), 1 mM of sodium pyruvate (ThermoFisher Scientific, Inc.), 100 U/mL of penicillin and 100 mg/mL of streptomycin (ThermoFisher Scientific, Inc.). PGC/ERR reporter HEK293 cells were cultured in the same medium as the ERR reporter HEK293 cells with an additional 1 μg/mL puromycin (ThermoFisher Scientific, Inc.) as the selection marker for PGC-1α expression.
(§4) The DMSO-only compound plates at the beginning and end of the compound plate stack were used to correct the data set by applying an in-house pattern correction algorithm [90]. The half maximum inhibition values (IC50) for each compound and maximum response (efficacy) values were obtained by fitting the concentration-response curves of each compound to a four-parameter Hill equation [91]. […] For each reading, the activity outcome of a test compound was first categorized by the average curve rank from the triplicate runs and the reproducibility calls. The final activity outcome of each compound was based on the ERR antagonist readout activity and cell viability counter screen.

cytochrome c = assay: qRT-PCR mRNA expression of ERR downstream gene cytochrome c; format: cell-based; settings: ERR reporter cells, vs GAPDH, DMSO = 0%
Method: as §1

[2] = tested on: ERR reporter HEK293 cells; assay: CellTiter-Fluor cell viability assay multiplexed with ERR reporter assay; format: cell-based; settings: for EC50: Homo sapiens, HEK293
Method: (§2) ERR or PGC/ERR reporter HEK293 cells suspended in culture medium without puromycin were dispensed at 2500 cells/5 μL/well in tissue culture–treated 1536-well white assay plates (Greiner Bio-One North America, Monroe, NC, USA) using a Thermo Scientific Multidrop Combi (ThermoFisher Scientific, Inc.). […] After the cells were incubated at 37 °C with 5% CO2 for 6 h, 23 nL of compounds or control, XTC790, was transferred into the assay plates using a Wako Pintool station (Wako Automation, San Diego, CA, USA). The assay plates were incubated at 37 °C for 18 h, followed by the addition of 5 μL ONE-Glo luciferase reagent (Promega, Madison, WI, USA) using a Flying Reagent Dispenser (Aurora Discovery, Carlsbad, CA, USA). After 30 min of incubation at room temperature, the luminescence intensity of the assay plates was quantified using a ViewLux plate reader (PerkinElmer, Shelton, CT, USA). The assays were performed three times for each compound concentration. These ERR and PGC/ERR reporter assays were multiplexed with the CellTiter-Fluor Cell Viability Assay (Promega), a fluorescence-based cell viability assay, to assess compound cytotoxicity.
The qHTS data were analyzed as described previously. […] The DMSO-only compound plates at the beginning and end of the compound plate stack were used to correct the data set by applying an in-house pattern correction algorithm. The half maximum inhibition values (IC50) for each compound and maximum response (efficacy) values were obtained by fitting the concentration-response curves of each compound to a four-parameter Hill equation [91]. […] For each reading, the activity outcome of a test compound was first categorized by the average curve rank from the triplicate runs and the reproducibility calls. The final activity outcome of each compound was based on the ERR antagonist readout activity and cell viability counter screen.

[3] = biological target: T2, estrogen-related receptor alpha (ERRα) (Homo sapiens, UniProt P11474); assay: ERR reporter (luciferase) antagonist qHTS assay, ERR-HEK293; settings: for EC50: mean ± SD, triplicate; for activity in the ERR assay: in words
T2 sequence (P11474 1-423): T1 sequence (P11474 1-423)
Method: as §3, §4

[4] = tested on: PGC/ERR reporter HEK293 cells; assay: CellTiter-Fluor cell viability assay multiplexed with PGC/ERR reporter assay; format: cell-based; settings: for EC50: Homo sapiens; for PGC/ERR-HEK293 Follow-Up Viability EC50: follow-up screen; for PGC/ERR-HEK293 Primary Viability EC50: primary qHTS
Method: as §2
The qHTS data were analyzed as described previously. Each titration point was normalized relative to the positive control compound (XCT790 = −100%) and DMSO-only wells (0%) according to the following equation: % Activity = [(Vcompound − VDMSO)/(VDMSO − Vpos)] × 100, where Vcompound denotes the compound well values, Vpos denotes the median value of the positive control wells, and VDMSO denotes the median values of the DMSO-only wells. The DMSO-only compound plates at the beginning and end of the compound plate stack were used to correct the data set by applying an in-house pattern correction algorithm. The half maximum inhibition values (IC50) for each compound and maximum response (efficacy) values were obtained by fitting the concentration-response curves of each compound to a four-parameter Hill equation [91]. Compounds were designated as Class 1–4 according to the type of concentration–response curve observed. For each reading, the activity outcome of a test compound was first categorized by the average curve rank from the triplicate runs and the reproducibility calls. The final activity outcome of each compound was based on the ERR antagonist readout activity and cell viability counter screen.

COX8α = assay: qRT-PCR mRNA expression of ERR downstream gene COX8α; format: cell-based; settings: ERR reporter cells, vs GAPDH, DMSO = 0%
Method: as §1

[5] = biological target: T1, ERRα with PGC-1α (PGC/ERR pathway)
Method: as §3, §4

[6] = biological target: T2, estrogen-related receptor alpha (ERRα)
Method: as §3, §4

[7] = PGC/ERR-HEK293 Follow-Up EC50, follow-up screen
[8] = PGC/ERR-HEK293 Primary EC50, primary qHTS, 18 h
[9] = follow-up screen, viability, read-out: ERR-HEK293 Follow-Up Viability EC50 (converted)
[10] = primary qHTS, viability counter screen, read-out: ERR-HEK293 Primary Viability EC50 (converted)
[11] = ERR-HEK293 Follow-Up EC50, follow-up (confirmation) screen
[12] = ERR-HEK293 Primary EC50, primary qHTS, 18 h, 15 concentrations
[13] = HEK293, primary qHTS, read-out: PGC/ERR-HEK293 Primary Viability EC50 (converted)
[14] = primary qHTS, viability counter screen

SMILES	EC50 [1, 7] [µM]	EC50 [1, 8] [µM]	activity in the ERR/PGC assay [1]	EC50 [2, 9] [µM]	EC50 [2, 10] [µM]	EC50 [3, 11] [µM]	EC50 [3, 12] [µM]	activity in the ERR assay [3]	EC50 [4, 13] [µM]	ERR-HEK293 Primary Viability EC50 [2, 14]	PGC/ERR-HEK293 Follow-Up Efficacy [5] [%]	PGC/ERR-HEK293 Primary Efficacy [5] [%]	ERR-HEK293 Follow-Up Efficacy [6] [%]	ERR-HEK293 Primary Efficacy [6] [%]	PGC/ERR-HEK293 Follow-Up Viability EC50 [4]	PGC/ERR-HEK293 Primary Viability EC50 [4]	ERR-HEK293 Follow-Up Viability EC50 ([2]; follow-up screen, viability)	further results
COc1ccc2cc3[n+](cc2c1OC)CCc1cc2c(cc1-3)OCO2 [Berberine]	8.93 ± 4.01	6.13 ± 1.71	antagonism	12.7	12.8	3.29 ± 2.27	3.16 ± 0.713	potent antagonists	17.3									Percent inhibition of mRNA gene expression, IDH3α (IDH3α; 20 µM): 15.1 ± 2.97%; PGC/ERR-HEK293 Follow-Up Efficacy ([1]; follow-up screen, negative = antagonism, positive = agonism): −87.4 ± 20.8%; PGC/ERR-HEK293 Primary Efficacy ([1]; primary qHTS, negative = antagonism, positive = agonism): −77.3 ± 14.6%; Percent inhibition of mRNA gene expression, Cytochrome C (cytochrome c; 20 µM): 46.2 ± 2.61%; ERR-HEK293 Follow-Up Efficacy ([3]; follow-up screen, relative to XCT790 = −100%): −92.0 ± 16.0%; ERR-HEK293 Primary Efficacy ([3]; primary qHTS, relative to XCT790 = −100%, DMSO = 0%): −88.4 ± 7.45%; EC50 ([4]; HEK293, follow-up screen, read-out: PGC/ERR-HEK293 Follow-Up Viability EC50 (converted)): 17.3 µM; Percent inhibition of mRNA gene expression, COX8α (COX8α; 20 µM): 5.15 ± 0.17%
CO/C=C(/C(=O)OC)c1ccccc1COc1cccc(C(F)(F)F)n1 [Picoxystrobin]	4.19 ± 2.97	2.79 ± 2.4		32.1		3.42 ± 0.393	0.807 ± 0.279			Inactive	−43.6 ± 14.2	−44.2 ± 4.37	−86.7 ± 15.8	−83.9 ± 10.6	Inactive	Inactive		
COC(=O)N(OC)c1ccccc1COc1ccn(-c2ccc(Cl)cc2)n1 [Pyraclostrobin]	0.539 ± 0.76	0.838 ± 0.771			40.9	0.762	0.239 ± 0.13		74.5		−42.1 ± 9.82	−58.2 ± 4.17	−80.0 ± 5.67	−90.7 ± 11.9	Inactive		Inactive	Percent inhibition of mRNA gene expression, IDH3α (IDH3α; 1 µM): 5.06 ± 5.03%; Percent inhibition of mRNA gene expression, Cytochrome C (cytochrome c; 1 µM): 11.0 ± 8.54%
CO/N=C(/C(=O)OC)c1ccccc1COc1ccccc1C [Kresoxim-methyl]	17.7 ± 6.04	7.66 ± 6.87				8.31 ± 3.29	5.65 ± 6.96			Inactive	−61.1 ± 10.0	−56.7 ± 8.51	−102 ± 1.40	−86.6 ± 21.1	Inactive	Inactive	Inactive	Percent inhibition of mRNA gene expression, IDH3α (IDH3α; 2 µM): 8.26 ± 19.3%; Percent inhibition of mRNA gene expression, Cytochrome C (cytochrome c; 2 µM): 9.31 ± 0.48%; Percent inhibition of mRNA gene expression, COX8α (COX8α; 2 µM): 9.70 ± 12.8%
CC(C)(C)c1ccc(CSc2cnn(C(C)(C)C)c(=O)c2Cl)cc1 [Pyridaben]	0.0434 ± 0.02	0.00781 ± 0.00301	antagonism			0.0245 ± 0.00942	0.00592 ± 0.000815	potent antagonists		Inactive	−63.1 ± 29.7	−57.6 ± 8.49	−94.1 ± 13.4	−77.3 ± 4.10	Inactive	Inactive	Inactive	Percent inhibition of mRNA gene expression, IDH3α (IDH3α; 15 nM): 14.6%
